Laboratory results as given in patent publication US8975249B2, “Heterocyclic compounds and uses thereof” (Celgene Avilomics Research, Inc., priority 2010, dated 2015).
pEC50, pIC50: −log10 of the molar value.

How the values were obtained:
[1] = system: HCC827 cells (EGFR delE746-A750); experiment: Cell proliferation (CellTiter Glo), HCC827 cells; details: proliferation GI50 WT EGFR / HCC827
EGFR (WT) = EGFR (WT) (Homo sapiens (Human), UniProt P00533); experiment: Omnia biochemical assay, EGFR-WT active enzyme; details: [EGFR-WT]=5 nM, [ATP]=15 uM, 30 min pre-incubation
Experimental: Kinase reactions were started with the addition of 45 μL of the ATP/Tyr-Sox peptide substrate mix and monitored every 71 seconds for 60 minutes at λex360/λem485 in a Synergy^4 plate reader from BioTek (Winooski, Vt.).
The compound numbers correspond to the compound numbers in Table 1.

[2] = system: H1975 cells (EGFR L858R/T790M); experiment: Cell proliferation (CellTiter Glo), H1975 cells; details: proliferation GI50 WT EGFR / H1975
WT EGFR (A431 cells) = WT EGFR (A431 cells) (Homo sapiens (Human), UniProt P00533); experiment: Phospho-EGFR signaling immunoblot in A431 cells (WT EGFR); type: cell-based; details: 1 hr treatment, EGF stimulated, phospho-EGFR (Y1068)
Experimental: (§1) A431 human epidermoid carcinoma, H1975 human NSCLC and HCC827 human NSCLC adenocarcinoma cells were obtained from the American Type Culture Center (Manassas, Va.). A431 cells were grown in DMEM (Invitrogen, Carlsbad, Calif.) supplemented with 10% FBS (HyClone, South Logan, Utah) and 1% Penicillin-Streptomycin (P/S, Lonza, Walkersville, Md.).
(§2) All primary antibodies were obtained from Cell Signaling (Danvers, Mass.) and used at 1:1000. Secondary antibodies were used at 1:10,000. Goat anti-mouse IgG IRDye 800CW antibody was obtained from LiCor Biosciences (Lincoln, Nebr.) and goat anti-rabbit IgG Alexa Fluor 680 was obtained from Invitrogen.
(§3) Cells were grown in 12-well plates (Corning, Coring, N.Y.) to 90% confluence and then incubated in low-serum (0.1% FBS) media for 16-18 hr. […] A431 cells were then stimulated with 50 ng/ml EGF (Peprotech, Rocky Hill, N.J.) for 15 min. After treatment, cell monolayers were washed with cold PBS (Invitrogen) and immediately lysed by scrapping into 60 uL cold Cell Extraction Buffer (Invitrogen) supplemented with Complete Protease inhibitors (Roche, Indianapolis, Ind.) and PhosphoSTOP (Roche) phosphatase inhibitors.
(§4) Phospho-protein signals were quantitated using Odyssey Infrared Imaging (Li-Cor Biosciences).
(§5) To assess phosphor-EGFR signaling, blots were probed with rabbit anti-Phospho-EGFR (Y1068) and mouse total anti-EGFR antibodies. Phospho-EGFR signal was normalized to total EGFR expression for each sample. […] Normalized data was fitted using a sigmoidal curve analysis program (Graph Pad Prism version 5) with variable Hill slope to determine the EC50 values.
(§6) The compound numbers recited in Table 4 correspond to the compound numbers in Table 1.

[3] = target: EGFR double mutation L858R/T790M (H1975 cells) (Homo sapiens (Human), UniProt P00533, L858R/T790M); experiment: Phospho-EGFR signaling immunoblot in H1975 cells; type: cell-based; details: for pEC50: H1975 cells, 1 hr treatment, phospho-EGFR (Y1068); for Ratio WT/mutant (H1975): signaling EC50 WT EGFR / H1975
Experimental: as §1, §2, §3, §4, §5, §6

pIC50 (EGFR (WT))	pEC50 (WT EGFR (A431 cells))	pEC50 [3]	Ratio WT/mutant (H1975) [3]	SMILES	Ratio WT/mutant (HCC827) [1]	Ratio WT/mutant (H1975) [2]
8.00 to 9.00	< 6.00	7.00 to 8.00	>20	C=CC(=O)Nc1cccc(Nc2nc(Nc3ccc(N4CCS(=O)(=O)CC4)cc3OC)ncc2C(F)(F)F)c1 [Compound I-49, N-(3-(2-(2-methoxy-4,4-dioxo-4-thiomorpholinophenylamino)-5-(trifluoromethyl)pyrimidin-4-ylamino)phenyl)acrylamide]	>25	>10
7.52 to 8.00	< 6.00	6.30 to 7.00	>5	C=CC(=O)Nc1cccc(Nc2nc(Nc3ccc(N4CCCN(C(C)=O)CC4)cc3OC)ncc2C(F)(F)F)c1 [Compound I-7, N-(3-(2-(4-(4-acetyl-1,4-diazepan-1-yl)-2-methoxyphenylamino)-5-(trifluoromethyl)pyrimidin-4-ylamino)phenyl)acrylamide]	>10	>1
7.00 to 7.52	< 6.00	6.30 to 7.00	>35	C=CC(=O)Nc1cccc(Oc2nc(Nc3ccc(N4CCN(S(C)(=O)=O)CC4)cc3OC)ncc2C(F)(F)F)c1 [Compound I-22, N-(3-(2-(2-methoxy-4-(4-(methylsulfonyl)piperazin-1-yl)phenylamino)-5-(trifluoromethyl)pyrimidin-4-yloxy)phenyl)acrylamide]	>35	>10
8.00 to 9.00	< 6.00	7.00 to 8.00	>50	C=CC(=O)Nc1cccc(Nc2nc(Nc3ccc(N4CCN(C(C)=O)CC4)cc3OC(F)(F)F)ncc2C(F)(F)F)c1 [Compound I-33, N-(3-(2-(4-(4-acetylpiperazin-1-yl)-2-(trifluoromethoxy)phenylamino)-5-(trifluoromethyl)pyrimidin-4-ylamino)phenyl)acrylamide]	>15	>30
7.52 to 8.00	< 6.00	< 6.00	>1	C=CC(=O)Nc1cccc(Nc2nc(Nc3ccc(N4CCN(C(=O)CO)CC4)cc3OC)ncc2Cl)c1 [Compound I-12, N-(3-(5-chloro-2-(4-(4-(2-hydroxyacetyl)piperazin-1-yl)-2-methoxyphenylamino)pyrimidin-4-ylamino)phenyl)acrylamide]	>30	>1
8.00 to 9.00	< 6.00	6.00 to 6.30	>5	C=CC(=O)Nc1cccc(Oc2nc(Nc3ccc(N4CCN(C(=O)CO)CC4)cc3OC)ncc2Cl)c1 [Compound I-3, N-(3-(5-chloro-2-(4-(4-(2-hydroxyacetyl)piperazin-1-yl)-2-methoxyphenylamino)pyrimidin-4-yloxy)phenyl)acrylamide]	>45	>5
7.52 to 8.00	< 6.00	6.30 to 7.00	>5	C=CC(=O)Nc1cccc(Oc2nc(Nc3ccc(N4CCN(C(=O)NC)CC4)cc3OC)ncc2C(F)(F)F)c1 [Compound I-21, 4-(4-(4-(3-acrylamidophenoxy)-5-(trifluoromethyl)pyrimidin-2-ylamino)-3-methoxyphenyl)-N-methylpiperazine-1-carboxamide]	>20	>1
8.00 to 9.00	< 6.00	> 8.00	–	C=CC(=O)Nc1cccc(Nc2nc(Nc3ccc(N4CCN(C(=O)CC)CC4)cc3OC)ncc2C(F)(F)F)c1 [Compound I-35, N-(3-(2-(2-methoxy-4-(4-propionylpiperazin-1-yl)phenylamino)-5-(trifluoromethyl)pyrimidin-4-ylamino)phenyl)acrylamide]	>25	>10
7.52 to 8.00	< 6.00	7.00 to 8.00	>50	C=CC(=O)Nc1cccc(Nc2nc(Nc3ccc(N4CCN(C(C)=O)[C@H](C(=O)OC)C4)cc3OC)ncc2C(F)(F)F)c1 [Compound I-48, (S)-methyl 1-acetyl-4-(4-(4-(3-acrylamidophenylamino)-5-(trifluoromethyl)pyrimidin-2-ylamino)-3-methoxyphenyl)piperazine-2-carboxylate]	>15	>10
7.00 to 7.52	< 6.00	6.30 to 7.00	>35	C=CC(=O)Nc1cccc(Nc2nc(Nc3ccc(N4CCN(C(=O)C(C)(C)C)CC4)cc3OC)ncc2C(F)(F)F)c1 [Compound I-34, N-(3-(2-(2-methoxy-4-(4-pivaloylpiperazin-1-yl)phenylamino)-5-(trifluoromethyl)pyrimidin-4-ylamino)phenyl)acrylamide]	>50	>5
6.00 to 6.52	< 6.00	6.00 to 6.30	>5	C=CC(=O)Nc1cccc(Nc2nc(Nc3ccc(N4CCCN(C(=O)OC(C)(C)C)CC4)cc3OC)ncc2C(F)(F)F)c1 [Compound I-44, tert-butyl 4-(4-(4-(3-acrylamidophenylamino)-5-(trifluoromethyl)pyrimidin-2-ylamino)-3-methoxyphenyl)-1,4-diazepane-1-carboxylate]	>5	>5
7.52 to 8.00	< 6.00	6.30 to 7.00	>15	C=CC(=O)Nc1cccc(Oc2nc(Nc3ccc(N4CCN(C(=O)CO)CC4)cc3OC)ncc2C(F)(F)F)c1 [Compound I-11, N-(3-(2-(4-(4-(2-hydroxyacetyl)piperazin-1-yl)-2-methoxyphenylamino)-5-(trifluoromethyl)pyrimidin-4-yloxy)phenyl)acrylamide]	>45	>5
7.52 to 8.00	< 6.00	< 6.00	>1	C=CC(=O)Nc1cccc(Nc2nc(Nc3ccc(N4CCN(C(C)=O)CC4)cc3OC)ncc2Br)c1 [Compound I-40, N-(3-(2-(4-(4-acetylpiperazin-1-yl)-2-methoxyphenylamino)-5-bromopyrimidin-4-ylamino)phenyl)acrylamide]	>10	>5
8.00 to 9.00	< 6.00	7.00 to 8.00	>20	C=CC(=O)Nc1cccc(Nc2nc(Nc3ccc(N4CCN(C(=O)CO)CC4)cc3OC)ncc2C(F)(F)F)c1 [Compound I-6, N-(3-(2-(4-(4-(2-hydroxyacetyl)piperazin-1-yl)-2-methoxyphenylamino)-5-(trifluoromethyl)pyrimidin-4-ylamino)phenyl)acrylamide]	>40	>10
7.52 to 8.00	< 6.00	< 6.00	>1	C=CC(=O)Nc1cccc(Nc2nc(Nc3ccc(N4CCN(C(C)=O)CC4)cc3OC)ncc2Cl)c1 [Compound I-8, N-(3-(2-(4-(4-acetylpiperazin-1-yl)-2-methoxyphenylamino)-5-chloropyrimidin-4-ylamino)phenyl)acrylamide]	>20	>1
7.52 to 8.00	< 6.00	6.30 to 7.00	>40	C=CC(=O)Nc1cccc(Oc2nc(Nc3ccc(N4CCN(S(C)(=O)=O)CC4)cc3OC)ncc2Cl)c1 [Compound I-26, N-(3-(5-chloro-2-(2-methoxy-4-(4-(methylsulfonyl)piperazin-1-yl)phenylamino)pyrimidin-4-yloxy)phenyl)acrylamide]	>35	>1
